In patent US20220220373A1, “FLUORESCENT PROBES FOR MONOACYLGLYCEROL LIPASE (MAGL)” (Hoffmann-La Roche Inc., priority 2019, published 2022):

Target: T1, MAGL (Homo sapiens, UniProt Q99685)
T1 sequence (Q99685 1-303): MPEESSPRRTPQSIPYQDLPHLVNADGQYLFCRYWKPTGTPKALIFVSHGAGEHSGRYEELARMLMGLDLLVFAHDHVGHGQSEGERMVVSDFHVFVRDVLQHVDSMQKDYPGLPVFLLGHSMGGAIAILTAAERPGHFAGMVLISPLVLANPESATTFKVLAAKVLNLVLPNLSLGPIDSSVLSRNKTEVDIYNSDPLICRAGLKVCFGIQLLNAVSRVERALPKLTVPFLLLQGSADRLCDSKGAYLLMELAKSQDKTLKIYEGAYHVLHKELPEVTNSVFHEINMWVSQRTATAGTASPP
Test: 2-AG assay (MAGL inhibitory activity, hydrolysis of 2-arachidonoylglycerol followed by mass spectrometry)
Format: biochemical
Conditions: 50 pM MAGL, 8 μM 2-arachidonoylglycerol, 15 min pre-incubation, 30 min incubation at RT
Experimental: Compounds were profiled for MAGL inhibitory activity by determining the enzymatic activity by following the hydrolysis of the natural substrate 2-arachidonoylglycerol (2-AG) resulting in arachidonic acid, which can be followed by mass spectrometry. This assay is hereinafter abbreviated “2-AG assay”.
The 2-AG assay was carried out in 384 well assay plates (PP, Greiner Cat#784201) in a total volume of 20 μL. Compound dilutions were made in 100% DMSO (VWR Chemicals 23500.297) in a polypropylene plate in 3-fold dilution steps to give a final concentration range in the assay from 12.5 μM to 0.8 pM. […] compound dilutions (100% DMSO) were added to 9 μL MAGL in assay buffer (50 mM TRIS (GIBCO, 15567-027), 1 mM EDTA (Fluka, 03690-100 mL), 0.01% (v/v) Tween. After shaking, the plate was incubated for 15 min at RT. To start the reaction, 10 μL 2-arachidonoylglycerol in assay buffer was added. The final concentrations in the assay was 50 pM MAGL and 8 μM 2-arachidonoylglyerol. After shaking and 30 min incubation at RT, the reaction was quenched by the addition of […] of ACN containing 4 μM of d8-arachidonic acid. The amount of arachidonic acid was traced by an online SPE system (Agilent Rapidfire) coupled to a triple quadrupole mass spectrometer (Agilent 6460). A C18 SPE cartridge (G9205A) was used in an ACN/water liquid setup. The mass spectrometer was operated in negative electrospray mode following the mass transitions 303.1→259.1 for arachidonic acid and 311.1→267.0 for d8-arachidonic acid. The activity of the compounds was calculated based on the ratio of intensities [arachidonic acid/d8-arachidonic acid].

SMILES | IC50
O=C(CCOCCOCCOCCNc1ccc([N+](=O)[O-])c2nonc12)NCCOc1cccc([C@H](c2ccccc2)C2CCN(C(=O)N3CC[C@@H]4OCC(=O)N[C@@H]4C3)CC2)c1 (single isomer, unassigned) [Example 22, N-[2-[3-[(S or R)-11-1(4aR,8aS)-3-oxo-4,4a,5,7,8,8a-hexahydropyrido[4,3-b][1,4]oxazine-6-carbonyl]-4-piperidyl]-phenyl-methyl]phenoxy]ethyl]-3-[2-[2-[2-[(4-nitro-2,1,3-benzoxadiazol-7-yl)amino]ethoxy]ethoxy]ethoxy]propanamide] | 0.4 nM
NCCOCCOCCC(=O)NCCOc1cccc(C(c2ccccc2)C2CCN(C(=O)N3CC[C@@H]4OCC(=O)N[C@@H]4C3)CC2)c1 (single isomer, unassigned) [Example 11, N-[2-[3-[(S or R)-[1-[(4aR,8aS)-3-Oxo-4,4a,5,7,8,8a-hexahydropyrido[4,3-b][1,4]oxazine-6-carbonyl]-4-piperidyl]-phenyl-methyl]phenoxy]ethyl]-3-[2-(2-aminoethoxy)ethoxy]propanamide] | 2930 nM
O=C(CCOCCOCCNc1ccc([N+](=O)[O-])c2nonc12)NCCOc1cccc(C(c2ccccc2)C2CCN(C(=O)N3CC[C@@H]4OCC(=O)N[C@@H]4C3)CC2)c1 (single isomer, unassigned) [Example 13, N-[2-[3-[(R or S)-[1-[(4aR,8aS)-3-Oxo-4,4a,5,7,8,8a-hexahydropyrido[4,3-b][1,4]oxazine-6-carbonyl]-4-piperidyl]phenyl-methyl]phenoxy]ethyl]-3-[2-[2-[(4-nitro-2,1,3-benzoxadiazol-7-yl)amino]ethoxy]ethoxy]propanamide] | 1.6 nM
O=C(CCOCCNc1ccc([N+](=O)[O-])c2nonc12)NCCOc1cccc(C(c2ccccc2)C2CCN(C(=O)N3CCC4OCC(=O)NC4C3)CC2)c1 (single isomer, unassigned) [Example 18, N-[2-[3-[(R or S)-[1-1(4aR,8aS)-3-Oxo-4,4a,5,7,8,8a-hexahydropyrido[4,3-b][1,4]oxazine-6-carbonyl]-4-piperidyl]-phenyl-methyl]phenoxy]ethyl]-3-12-[(4-nitro-2,1,3-benzoxadiazol-7-yl)amino]ethoxy]propanamide] | 7.2 nM
NCCOc1cccc(C(c2ccccc2)C2CCN(C(=O)N3CC[C@@H]4OCC(=O)N[C@@H]4C3)CC2)c1 (single isomer, unassigned) [Example 6, (4aR,8aS)-6-[4-[(S or R)-[3-(2-Aminoethoxy)phenyl]-phenyl-methyl]piperidine-1-carbonyl]-4,4a,5,7,8,8a-hexahydropyrido[4,3-b][1,4]oxazin-3-one] | 5.3 nM
O=C(CCOCCNc1ccc([N+](=O)[O-])c2nonc12)NCCOc1cccc(C(c2ccccc2)C2CCN(C(=O)N3CC[C@@H]4OCC(=O)N[C@@H]4C3)CC2)c1 (some centres unmarked) [Example 2] | 1.2 nM
CC(C)(C)OC(=O)NCCOCCC(=O)NCCOc1cccc(C(c2ccccc2)C2CCN(C(=O)N3CC[C@@H]4OCC(=O)N[C@@H]4C3)CC2)c1 (single isomer, unassigned) [Example 14, tert-Butyl N-[2-[3-[2-[3-[(S or R)-[1-[(4aR,8aS)-3-oxo-4,4a,5,7,8,8a-hexahydropyrido[4,3-b][1,4]oxazine-6-carbonyl]-4-piperidyl]-phenyl-methyl]phenoxy]ethylamino]-3-oxo-propoxy]ethyl]carbamate] | 1.3 nM
O=C(CCOCCNC(=O)CCc1ccc2n1[B-](F)(F)[N+]1=C(c3ccc[nH]3)C=CC1=C2)NCCOc1cccc(C(c2ccccc2)C2CCN(C(=O)N3CC[C@@H]4OCC(=O)N[C@@H]4C3)CC2)c1 (single isomer, unassigned) [Example 21, N-[2-[3-[2-[3-[(S or R)-[1-[(4aR,8aS)-3-oxo-4,4a,5,7,8,8a-hexahydropyrido[4,3-b][1,4]oxazine-6-carbonyl]-4-piperidyl]-phenyl-methyl]phenoxy]ethylamino]-3-oxo-propoxy]ethyl]-3-12,2-difluoro-12-(1H-pyrrol-2-yl)-3-aza-1-azonia-2-boranuidatricyclo[7.3.0.03,7]dodeca-1(12),4,6,8,10-pentaen-4-yl]propanamide] | 0.3 nM
